Laboratory results from the METLIN SMRT retention time set (Domingo-Almenara et al. 2019).

Experiment: gradient 5% acetonitrile 3 min, to 50% in 2 min, to 85% in 15 min, held 3 min, 100 µL/min
Conditions: column: Zorbax Extend-C18 2.1 x 50 mm; eluents: water / acetonitrile, 0.1% formic acid
Summary of the method: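 The system's dead and dwell volumes were 40 μL and 900 μL, with a Zorbax Extend-C18 column (2.1 × 50 mm, 1.8 μm) run at 100 μL/min in water and acetonitrile containing 0.1% formic acid each. Pure standards were analyzed in mixtures of ~100 molecules by HPLC–quadrupole time-of-flight mass spectrometry in positive and negative ionization mode. Retention time was assigned from computationally picked, manually inspected adduct peaks.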

Row | RP-LC retention time [s] | Compound
1 | 923 | COc1cccc2sc(NC(=O)Cc3ccc(Cl)s3)nc12
2 | 799 | CCC(C)C(NC(=O)c1cc(C)cc(C)c1)C(=O)Nc1nc2ccccc2[nH]1 (stereo not given)
3 | 773 | CCC1(O)CCC12CCN(C(=O)C1CCCC1)CC2 (stereo not given)
4 | 785 | O=C1NC2(CCN(C(=O)Cc3cccc(F)c3)CC2)Nc2c(Cl)cccc21
5 | 1180 | Cc1ccc(-c2nc(-c3ccc4c(c3)nc(C)c(=O)n4C)no2)cc1C
6 | 692 | Cc1ccc(CNC(=O)C2CCc3sc(C(=O)N(C)C)cc3C2)cc1 (stereo not given)
7 | 929 | COc1ccc(NC2=NS(=O)(=O)C(c3ccc(F)cc3)=C2C)c(OC)c1
8 | 844 | O=C(c1cccs1)N1CCC2(CC1)N=C(c1ccc(Cl)cc1)NO2
9 | 782 | Cc1cccc(N(C(=O)c2cnc3n(c2=O)CCS3)C2CCCCC2)c1
10 | 720 | COc1ccccc1-c1noc(C2CCCN2C(=O)c2cnccn2)n1 (stereo not given)
11 | 680 | Cc1cccc(S(=O)(=O)N2CCc3c(C(=O)NCCCN4CCCCC4)cccc32)c1
12 | 720 | CCc1cc(=O)n(CC(=O)N2CCN(c3ccc(F)cc3)CC2)c(N2CCOCC2)n1
13 | 647 | NC(=O)/C(=C\c1ccncc1)c1cccc2ccccc12
14 | 627 | COc1cc(NC(=O)N2CCCC(Cn3cnc4cccnc43)C2)cc(OC)c1OC (stereo not given)
15 | 831 | Cc1ccc(C2=NC3(CCN(C(=O)c4ccc5c(c4)OCO5)CC3)NC2=O)cc1C
16 | 961 | CCc1noc(C2(NC(=O)/C=C/c3ccccc3)CCCCC2)n1
17 | 998 | Cn1c(=O)c(N2CCCC(C(=O)NCc3cccc(Br)c3)C2)nc2ccccc21 (stereo not given)
18 | 682 | CCCn1cnc2ccc(-c3noc(CNS(=O)(=O)c4ccccc4)n3)cc21
19 | 1180 | COC(=O)c1ccc2c(=O)n(-c3cc(F)cc(F)c3)c(N3CCCCC3)nc2c1
20 | 649 | Cc1nc2cc(N3CCC(C(=O)Nc4ccc(N5CCOCC5)cc4)CC3)cnc2nc1C
21 | 570 | COc1cc(CCC(=O)N2CC(c3noc(C4CCCN4C)n3)C2)on1 (stereo not given)
22 | 1010 | Cc1cc(NC(=O)c2ccccc2Br)nc2c1c(=O)oc1ccccc12
23 | 656 | CC1CCN(S(=O)(=O)c2ccc3c(c2)CCCC(=O)N3CC(=O)N2CCN(C)CC2)CC1

Row | RP-LC retention time [s] | Compound
24 | 738 | COCCc1noc(C2CN(C(=O)C3(c4ccc(OC)cc4)CC3)C2)n1
25 | 1240 | O=C1CN(S(=O)(=O)c2ccc(F)c(Cl)c2)CC2(CCCCC2)N1C1CCCC1
26 | 784 | CCCC(=O)N1CCCC(COc2ccc(C(=O)NC(C)C)cc2)C1 (stereo not given)
27 | 790 | COc1cc2c(cc1OC)C(C(=O)Nc1ccc3c(c1)OCO3)C(c1cccs1)N(C)C2=O (stereo not given)
28 | 746 | CN1c2ccccc2C(=O)NC12CCN(C(=O)c1ccc(F)c(F)c1)CC2
29 | 818 | Cc1ccc(CNC(=O)c2cn(-c3ccc(NC(=O)C4CC4)cn3)cn2)cc1C
30 | 984 | CS(=O)(=O)N1CCCc2cc(C(=O)Nc3cccc(Br)c3)ccc21
31 | 604 | CN(C)C(=O)c1cc(=O)[nH]c2c(Cl)cccc12
32 | 668 | Cc1nnc2c(=O)n(CC(=O)N3CCCC(C)C3)c3cccnc3n12 (stereo not given)
33 | 743 | CS(=O)(=O)N1CCC(CC(=O)NCCC2=CCCCC2)C1 (stereo not given)
34 | 774 | COc1ccc(Br)c(C(=O)Nc2nnc(Cc3ccc(F)cc3)o2)c1
35 | 1100 | COc1ccc(N2CCN(C(=O)C3CCCN(c4nc5ccccc5nc4OC)C3)CC2)cc1 (stereo not given)
36 | 817 | O=C(c1ccccn1)N1CCCn2nc(-c3ccc(Cl)cc3)cc2C1
37 | 813 | O=C(NCCc1ccco1)C1CCN(Cc2cc3ccccc3n2Cc2cccc(Cl)c2)CC1
38 | 760 | Cc1nc(-c2nc(-c3cccs3)cs2)cn1CC(=O)NCc1ccccc1
39 | 904 | Nc1nc(-c2ccccc2)nn1C(=O)c1ccccc1
40 | 649 | COc1ccc(Cl)cc1NC(=O)N1CCN(CCn2c(C(C)C)nc3cccnc32)CC1
41 | 560 | COCC1(O)CCOC2(CCN(Cc3ccc(F)c(Cl)c3)CC2)C1 (stereo not given)
42 | 592 | O=C(NCCN1CCOCC1)c1nc(Nc2ccc(F)cc2)c2ccccc2n1
43 | 1010 | Cn1nnc2ccc(-c3noc(-c4cccc(F)c4)n3)cc21
44 | 1130 | CCOc1cccc(-c2noc(CCn3nc(-c4ccc(Cl)cc4)ccc3=O)n2)c1
45 | 874 | CC1=C(c2ccc(C)c(C)c2)S(=O)(=O)N=C1N1CCCN(C(=O)c2cccs2)CC1
46 | 613 | CN1C(=O)COc2cc(-c3noc(C(=O)NCc4cccnc4)n3)ccc21

Row | RP-LC retention time [s] | Compound
47 | 812 | COCCCNC(=O)c1ccc2cnn(Cc3ccc(Cl)cc3)c2c1
48 | 656 | O=C(Nc1nnc(-c2ccco2)o1)c1c[nH]c2ccccc12
49 | 749 | COCCNC(=O)c1c(C)sc2ccn(Cc3ccc(F)cc3)c(=O)c12
50 | 1060 | N#Cc1ccc(C(=O)N2CCCC2c2nc(-c3cccc(C(F)(F)F)c3)no2)c(F)c1 (stereo not given)
51 | 739 | CCn1cc(CC(=O)NCc2cc(F)cc(F)c2)c2cccnc21
52 | 865 | Cc1ccc(CNc2nc(-c3ccc(Cl)cc3)nc3ccccc23)o1
53 | 879 | CCc1noc(NC(C)=O)c1-c1ccc(C)c(S(=O)(=O)N2CCCCC2)c1
54 | 723 | CN(C)c1cnc(-n2cc(NC(=O)c3ccc(F)cc3)cn2)nc1
55 | 983 | COc1ccc(N2CC(c3noc(-c4cccc(N(C)C)c4)n3)CC2=O)cc1 (stereo not given)
56 | 935 | CCCN1C(=O)C(NC(=O)c2ccccc2OC)(C(F)(F)F)C(C(=O)OC)=C1C (stereo not given)
57 | 677 | Cc1c(Cl)cccc1NC(=O)Cn1nc2c3cc(F)ccc3ncn2c1=O
58 | 859 | O=C(Nc1cccc(C(F)(F)F)c1)c1cnc(-c2ccccc2)nc1-c1ccncc1
59 | 967 | CS(=O)(=O)Nc1ccc2oc3c(OC(F)F)ccc(C(=O)Nc4c(Cl)cncc4Cl)c3c2c1
60 | 811 | CCN(CC)C(=O)Cn1c(C(F)(F)F)nc2cc3c(cc21)OCCO3
61 | 555 | COCCN1CC(CO)C2(CCN(Cc3ccc(Cl)c(F)c3)CC2)C1 (stereo not given)
62 | 710 | CC(Oc1ccccc1Cl)C(=O)NCCn1nc(-n2cccn2)ccc1=O (stereo not given)
63 | 657 | O=C(NCC1(N2CCOCC2)CCOC1)Nc1cc(Cl)cc(Cl)c1 (stereo not given)
64 | 798 | COc1cc(NC(=O)Cn2c(=O)nc(N3CCC(C)CC3)c3ccccc32)cc(OC)c1
65 | 1060 | Cc1nn(-c2ccccc2)c(C)c1S(=O)(=O)N1CCC(C(=O)N2c3ccccc3CC2C)CC1 (stereo not given)
66 | 1010 | CCC(c1cccs1)N1C(=O)[C@H]2CN(S(=O)(=O)c3cccc(OC)c3)C[C@H]2C1=O (stereo not given in full)
67 | 895 | COc1cccc(CNC(=O)C2(C)CCCN(C(=O)Nc3ccccc3C)C2)c1 (stereo not given)
68 | 978 | CCCn1cc(CCNS(=O)(=O)c2cc(C)c(C)cc2C)c2cccnc21
69 | 554 | Cn1c(=O)c2c(-c3ccncc3)c(C#N)c(N)nc2n(C)c1=O

Row | RP-LC retention time [s] | Compound
70 | 711 | CCNC(=O)C1CCCN(c2nc3ncn(CC(=O)Nc4ccc(C)cc4C)c(=O)c3s2)C1 (stereo not given)
71 | 856 | CCC(=O)N(C1CCOCC1)C1CCN(S(=O)(=O)c2ccc(F)c(F)c2)CC1
72 | 635 | COCc1cc(=O)n(CC(=O)Nc2cccc(Cl)c2)c(N)n1
73 | 997 | COc1cccc(-c2noc(C3CCCN3C(=O)c3ccc(C)s3)n2)c1 (stereo not given)
74 | 846 | CCc1cccc(N(C)C(N)=Nc2cccc3ccccc23)c1
75 | 871 | COc1ccc(-n2cc(C(=O)NCCc3c[nH]c4ccc(F)cc34)nn2)cc1
76 | 751 | O=C(O)CCC1CCN(S(=O)(=O)c2ccccc2F)CC1
77 | 596 | NC(=O)CSc1nnc(N2CCN(C(=O)c3ccccc3Cl)CC2)s1
78 | 720 | Cn1cccc1C(=O)N1CCC(c2noc(-c3ccncc3)n2)C1 (stereo not given)
79 | 630 | COc1cccc(CNC(=O)Cn2nc3c4cccc(C)c4ncn3c2=O)c1OC
80 | 741 | COc1cc(CN2C[C@@H]3C(=O)N(Cc4ccc5c(c4)OCO5)C(=O)[C@@H]3C2)cc(OC)c1
81 | 679 | Cn1nc(CN2CCCC2)c2c1CCN(S(=O)(=O)c1ccc(C(F)(F)F)cc1)C2
82 | 569 | CN(C)C[C@@H]1CN(S(C)(=O)=O)C[C@H]1NC(=O)c1cccs1
83 | 714 | Cc1cccc(CNC(=O)c2ccc(CN3CCN(C(C)C)C(=O)C3=O)cc2)c1
84 | 710 | Cc1nc2nc(-c3ccccc3)nn2c(Sc2ccccc2N)c1C
85 | 843 | CC(C)Sc1ccc2nn(CC(=O)Nc3ccc(Br)cc3F)c(=O)n2n1
86 | 725 | CCOC(=O)C(C)Oc1cccc2c(=O)n(CC(=O)NCc3ccco3)ccc12 (stereo not given)
87 | 774 | c1ccc(SCc2nnc3sc(-c4cnccn4)nn23)cc1
88 | 715 | O=C(NCCO)C(=O)NCC1(c2ccccc2)CCCC1
89 | 688 | Cc1nc2sc(C)c(C)n2c(=O)c1NC(=O)c1ccc(Br)o1
90 | 880 | O=C1CCc2cc(OCCCCc3nnnn3C3CCCCC3)ccc2N1
